Several values for one entry are separate records, joined by “and”; a condition that tells them apart may be missing. Identical values can stand only once.
Assays:
[1] = system: MYCN, MCL-1, PARP, LC3I, LC3II, BRD-4, bcl-2 and BAX gene expression in BE-2c cells; test: RNAseq gene expression analysis; format: cell-based; set-up: RNAseq expression value, MYCN gene / RNAseq expression value, MCL-1 gene / RNAseq expression value, LCII gene / RNAseq expression value, LCI gene / RNAseq expression value, BRD-4 gene / RNAseq expression value, Bcl-2 gene / RNAseq expression value, BAX gene: unit not given here; details: 18 h, TEM alone 1 μM
Description: Total RNA was extracted using the RNeasy Micro Kit (Qiagen, Germantown, MD). Nano Drop was used to measure RNA concentration and purity and integrity was evaluated using Agilent Bioanalyzer System (Agilent Technologies, Santa Clara, CA). RNA sequencing and library preparation was performed using Maestro TruSeq Application (Perkin Elmer, Waltham, MA). Parameters used were optimized for 50 bp single-end reads with 20 million reads per sample. […] Gene expression analysis are reported for those pathways where protein analysis was performed (MYCN, MCL-1, PARP, LC3I, LC3II, BRD-4, bcl-2, and BAX).

[2] = system: BE2-c subcutaneous tumors; test: Anti-tumor activity in BE2-c tumor bearing NSG mice; format: in vivo; details: follow up study, dosing three times per week
Description: A follow up study of the combination integrated control groups and modified dosing of MP1 plus TEM to three times per week at the doses described above. […] Tumor measurements were performed daily and treatments began on the first day the tumor achieved 2 mm^3 in size.

[3] = compared to untreated controls
Description: NSG mice were injected subcutaneously with 5 × 10^5 BE2-c cells in a 50:50 PBS/Matrigel® solution. […] Bone marrow was collected at necropsy for a CFU-GM assay to assess bone marrow toxicity.

[4] = system: OXPHOS (OCR) and glycolysis (ECAR) in BE-2c cells; test: Metabolic flux analysis and cell energy phenotype (XFp Seahorse); format: cell-based; details: 18 h, metformin 5 mM
Description: Six wells of an XFp culture plate were seeded with 15,000 BE-2c cells/well in 80 μL DMEM with 10% FBS. […] The XFp Cell Energy Phenotype assay utilizes oligomycin as an inhibitor of ATP synthase and FCCP which is a mitochondrial uncoupling reagent. Oligomycin inhibits mitochondrial ATP production leading to a compensatory increase in glycolysis to meet energy demands. FCCP depolarizes the mitochondrial membrane driving the oxygen consumption rates higher as mitochondria restore polarization. The results were graphed on a grid indicating degree of aerobic/glycolytic metabolism and energetic/quiescent phenotypes.

Structure (SMILES) | Change (fold change treatment over control), BAX gene [1] | Change (fold change treatment over control), BRD-4 gene [1] | Change (fold change treatment over control), Bcl-2 gene [1] | Change (fold change treatment over control), MCL-1 gene [1] | Change (fold change treatment over control), MYCN gene [1] | Change (fold change treatment over control), PARP1 gene [1] | RNAseq expression value, BAX gene ([1]; replicates #1-#3) | RNAseq expression value, BRD-4 gene ([1]; replicates #1-#3) | RNAseq expression value, Bcl-2 gene ([1]; replicates #1-#3) | RNAseq expression value, LCI gene ([1]; replicates #1-#3) | RNAseq expression value, LCII gene ([1]; replicates #1-#3) | RNAseq expression value, MCL-1 gene ([1]; replicates #1-#3) | RNAseq expression value, MYCN gene ([1]; replicates #1-#3) | RNAseq expression value, PARP1 gene ([1]; replicates #1-#3) | Complete responses [2] | Bone marrow toxicity (CFU-GM assay) [3] | Effect on OXPHOS and glycolysis [4]
CO[C@H]1C[C@@H]2CC[C@@H](C)[C@@](O)(O2)C(=O)C(=O)N2CCCC[C@H]2C(=O)O[C@H]([C@H](C)C[C@@H]2CC[C@@H](OC(=O)C(C)(CO)CO)[C@H](OC)C2)CC(=O)[C@H](C)/C=C(\C)[C@@H](O)[C@@H](OC)C(=O)[C@H](C)C[C@H](C)/C=C/C=C/C=C/1C [TEM, temsirolimus] | −1.14 | −1.06 | 1.45 | −1.12 | 1.0 | −1.2 | 42.7 and 37.3 and 40.6 | 70.4 and 71.4 and 72.7 | 49.2 and 52.0 and 47.7 | 5.1 and 4.4 (2×) | 92.7 and 92.5 and 89.7 | 281 and 282 and 276 | 2264 and 2140 and 2232 | 580 and 617 and 599 | no complete responses | unaffected | 
CN(C)C(=N)N=C(N)N [metformin] |  |  |  |  |  |  |  |  |  |  |  |  |  |  |  |  | uncoupled OXPHOS metabolism without effects on glycolysis

— paper PMC6712804 (BMC Cancer, 2019)
